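The compound was tested at five concentrations on cells cultured in 96-well plates, with a 48-hour exposure period. Here, GI50 denotes the concentration required for 50% inhibition of growth. TGI is the concentration that stops growth completely.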

Holding throughout (test): NCI tumour cell line growth inhibition, 48 h
The test system of assay [1] is HOP-92 NSCLC.
The subject of assay [2] is IGROV1 ovarian.
The test system of assay [3] is CAKI-1 renal.
Assay [4] concerns KM12 colon.
Assay [5] has as its system HCT-116 colon.
Assay [6] concerns SF-539 CNS.
Assay [7] deals with PC-3 prostate.
For assay [8], the system named is CCRF-CEM leukemia.
Assay [9] concerns MOLT-4 leukemia.
The test system of assay [10] is NCI/ADR-RES ovarian.
For assay [11], the system named is K-562 leukemia.
For assay [12], the system named is HOP-62 NSCLC.

Consider `Nc1ccn(CC(O)c2cc3ccccc3[nH]2)c(=O)n1` (stereo not drawn), for which the TGI in assay [1], in [2], in assay [3], in assay [4], in [5] and in assay [6] was greater than 100 µM throughout. The TGI in [7], in assay [8], in assay [9], in assay [10], in assay [11] and in [12] was greater than 100 µM in each case.
On to `CC(C)(CO)CNc1cc(Cl)nc(N)n1`, for which the TGI in assay [1], in assay [2], in [3], in [4], in assay [5] and in [6] was greater than 100 µM throughout. The TGI in assay [7], in [8], in assay [9], in assay [10], in assay [11] and in assay [12] was greater than 100 µM throughout.
For `O=C1/C(=C/c2ccc(O)cc2)Oc2ccccc21`, the TGI in assay [1], in assay [2], in assay [3], in [4], in assay [5] and in assay [6] was greater than 100 µM in each case. For the same compound, the TGI in [7], in [8], in assay [9], in assay [10], in assay [11] and in assay [12] was greater than 100 µM each time.
`CC1C(c2ccccc2)NC(c2ccccc2)CC1(N)C#N` (stereo not drawn): the TGI in assay [1], in assay [2], in assay [3], in [4], in [5] and in assay [6] was greater than 100 µM each time. For the same compound, the TGI in [7], in assay [8], in [9], in [10], in assay [11] and in assay [12] was greater than 100 µM each time.
In the case of `CC(C)OP(=O)(OC(C)C)/C(C#N)=C/c1c[nH]c2ccccc12`, the TGI in assay [1], in assay [2], in assay [3], in assay [4], in [5] and in assay [6] was greater than 100 µM in each case. The TGI in [7], in assay [8], in assay [9], in [10], in assay [11] and in assay [12] was greater than 100 µM throughout.
Turning to `CC1CN=C(c2ccc(CN3CCC(CCCC4CCN(Cc5ccc(C6=NCC(C)N6)cc5)CC4)CC3)cc2)N1` (stereo not drawn), the TGI is greater than 100 µM in assay [1]; greater than 100 µM in assay [2]; greater than 100 µM in [3]; 40 µM in assay [4]; greater than 100 µM in assay [5]; greater than 100 µM in assay [6]. The TGI is greater than 100 µM in [7]; 67.4 µM in [8]; 50.1 µM in [9]; greater than 100 µM in [10]; greater than 100 µM in assay [11]; greater than 100 µM in assay [12].
Regarding `Cc1ccc(C)c2c1n1c(=O)n(C)c(=O)n21`, the TGI in [1], in assay [2], in assay [3], in [4], in assay [5] and in [6] was greater than 100 µM throughout. Besides, the TGI in assay [7], in [8] and in assay [10] was greater than 100 µM each time.
Consider `CC(C)(C)OC(=O)NNCC(O)COc1ccccc1` (stereo not drawn), for which the TGI in [1], in [2], in assay [3], in [5], in [6] and in assay [7] was greater than 100 µM in each case. The TGI in assay [8], in assay [9], in assay [10], in assay [11] and in [12] was greater than 100 µM in each case.
`Cc1oc2nc(N(C)C)n3cnnc3c2c1C`: the TGI in assay [1], in assay [2], in assay [3], in assay [4], in [5] and in [6] was greater than 100 µM throughout. In addition, the TGI in [7], in assay [8], in assay [9], in [10], in assay [11] and in assay [12] was greater than 100 µM in each case.
For `OCC(S)CS.[Bi]` (stereo not drawn), the TGI in [1] was 44.6 µM; in assay [2], 54.9 µM; in [3], 24.9 µM; in [4] it was 46.2 µM; in assay [5], 44.4 µM; in assay [6], greater than 100 µM. For the same compound, the TGI was 27.3 µM in assay [7]; 5.22 µM in assay [8]; greater than 100 µM in assay [10]; greater than 100 µM in [11]; 50.9 µM in [12].
With `O=C1C=CC(=O)c2c(O)c(N(CCCl)CCCl)c(Cl)c(O)c21`, the TGI in assay [1] was 5.78 µM; in assay [2] it was greater than 7.99 µM; in assay [3], 6.51 µM; in assay [4], greater than 9.63 µM; in assay [5] it was 5.68 µM; in assay [6] it was greater than 7.9 µM. In addition, the TGI in assay [7] was greater than 8.55 µM; in [8] it was greater than 7.38 µM; in [9], greater than 10 µM; in assay [10], greater than 10 µM; in [11], greater than 10 µM; in [12], greater than 10 µM.
Consider `COc1ccc(/N=N/C(=NNC(=O)c2ccc(C)cc2)c2ccc(N(C)C)cc2)cc1`, for which the TGI in assay [1], in assay [2], in assay [3], in [4], in [5] and in assay [6] was greater than 100 µM each time. The TGI was greater than 100 µM in assay [7]; greater than 100 µM in assay [8]; greater than 72.5 µM in assay [9]; greater than 100 µM in assay [10]; greater than 100 µM in assay [11]; greater than 100 µM in assay [12].
`c1ccc(OCc2nnc(CCCCCCCCc3nnc(COc4ccccc4)o3)o2)cc1`: the TGI in assay [1], in [2], in assay [3], in assay [4], in [5] and in assay [6] was greater than 100 µM each time. The TGI in assay [7], in assay [8], in [9], in assay [10], in [11] and in assay [12] was greater than 100 µM each time.
As to `O=C(Cn1c(=O)oc2ccc(C(=O)c3cccc(Cl)c3)cc21)c1ccccc1`, the TGI in assay [1], in assay [2], in assay [3], in assay [6], in assay [7] and in assay [8] was greater than 100 µM in each case. For the same compound, the TGI in assay [9], in assay [10], in [11] and in [12] was greater than 100 µM throughout.
Regarding `CCN(CC)CCNc1ccc([N+](=O)[O-])c2nc3ccc(OC)cc3c(N)c12`, the TGI worked out at 3.19 µM in [1]; 1.21 µM in [2]; 3.85 µM in [3]; 2.57 µM in assay [4]; 0.284 µM in assay [5]; 3.27 µM in [6]. For the same compound, the TGI is 2.78 µM in assay [7]; 1.31 µM in assay [8]; 1.61 µM in [9]; 3.53 µM in assay [10]; 0.665 µM in [11]; 3.74 µM in [12].
On to `COc1ccc2c(c1)[nH]c1c3ccc(OC)cc3oc(=O)c21`, for which the TGI in assay [1], in assay [2], in assay [3], in assay [4], in assay [5] and in [6] was greater than 100 µM each time. The TGI in [7], in [8], in [9], in assay [10], in assay [11] and in assay [12] was greater than 100 µM in each case.
Regarding `O=C1Nc2ccccc2SC1=C(C(=O)c1ccccc1)C(=O)c1ccccc1`, the TGI in assay [1] was 99.9 µM; in assay [2], greater than 100 µM; in [3] it was greater than 100 µM; in [4], greater than 100 µM; in assay [5] it was greater than 100 µM; in [6] it was greater than 100 µM. Moreover, the TGI in [7] is greater than 100 µM; in assay [8], 77.4 µM; in assay [10] it was greater than 100 µM; in assay [11], greater than 100 µM; in [12], greater than 100 µM.
For the compound `NNS(=O)(=O)c1ccc(/C=C2\NC(=O)NC2=O)cc1`, the TGI in assay [1], in [2], in assay [3], in assay [4], in [5] and in [7] was greater than 100 µM in each case. Besides, the TGI in assay [8], in assay [9], in assay [10], in [11] and in [12] was greater than 100 µM throughout.
Turning to `Cc1ccc(S(=O)(=O)NC(=O)NC(CC(=O)O)C(=O)O)cc1` (stereo not drawn), the TGI in assay [1], in assay [2], in assay [4], in [5], in assay [6] and in assay [7] was greater than 100 µM each time. The TGI in assay [8], in [9], in assay [10], in assay [11] and in assay [12] was greater than 100 µM in each case.
With `N=C(N)c1ccc(-c2ccc(-c3ccc(Cl)cc3Cl)s2)nc1`, the GI50 in [1] is 1.76 µM; in assay [3] it was 1.71 µM; in assay [4], 1.76 µM; in assay [6], 1.66 µM; in assay [7] it was 1.86 µM; in assay [8], 2.27 µM. Further, the GI50 in assay [10] is 1.88 µM; in [12], 1.89 µM. Also, the TGI in assay [1] was 4 µM; in [3], 3.1 µM; in assay [4] it was 3.19 µM; in assay [6] it was 3.06 µM; in assay [7], 3.67 µM; in assay [8], 5.01 µM. Further, the TGI in assay [10] worked out at 3.64 µM; in assay [12], 3.92 µM.
Consider `Clc1ncnc2c1nc(C#Cc1ccccc1)n2C1CCCCO1` (stereo not drawn), for which the TGI in assay [1] amounted to 3.83 µM; in [3] it was 3.91 µM; in assay [4] it was 3.05 µM; in [5], 4.02 µM; in assay [6], 4.28 µM; in assay [7], 11.8 µM. Moreover, the TGI in assay [8] is greater than 100 µM; in assay [9], 8.32 µM; in assay [10] it was 7.01 µM; in assay [11], 7.46 µM; in assay [12], 6.38 µM.
`Cc1ccc(C(=O)N/N=C(\N=Nc2ccccc2C(=O)O)c2ccc(N(C)C)cc2)cc1`: the TGI in [1], in assay [2], in assay [3], in assay [4], in assay [5] and in [6] was greater than 100 µM in each case. The TGI in assay [7], in [8], in [9], in [10] and in assay [11] was greater than 100 µM in each case.
In the case of `COc1cc(-c2nc(SC)nc3c2CCc2ccccc2-3)cc(OC)c1OC`, the TGI in assay [1], in assay [2], in assay [4], in [5], in assay [6] and in assay [7] was greater than 100 µM each time. For the same compound, the TGI in [8] was greater than 100 µM; in [9], 96.2 µM; in [10], greater than 100 µM; in assay [11], 79.2 µM; in assay [12], greater than 100 µM.
Turning to `COc1cccc(N(CN2C(=O)CCC2OC)C(C)=O)c1` (stereo not drawn), the TGI in assay [1], in [3], in assay [4], in assay [5], in [6] and in [7] was greater than 100 µM throughout. The TGI in assay [8], in assay [9], in [10], in [11] and in assay [12] was greater than 100 µM in each case.

The record behind these values is PubChem BioAssay (NCI).
